In data set [1] the test system is Klebsiella pneumonia ATCC-700603. Put plainly: MIC (50% NHS). The class given is cell-based. The settings on record: Klebsiella pneumoniae, ATCC700603; Klebsiella pneumonia ATCC-700603, 50% NHS.
Data set [2] relates to Staphylococcus aureus NRS-384. The experiment in a line: MIC (50% NHS). It is filed as cell-based. The settings on record: NRS384; Staphylococcus aureus NRS-384, 50% NHS.
Data set [3] relates to Klebsiella pneumonia ATCC-43816. The experiment in a line: MIC (50% NHS). The settings on record: Klebsiella pneumoniae, ATCC43816; Klebsiella pneumonia ATCC-43816, 50% NHS. It is filed as cell-based.
Data set [4] relates to Enterococcus faecium ATCC-700221. The experiment in a line: MIC (50% NHS). It is filed as cell-based. The settings on record: ATCC700221; Enterococcus faecium ATCC-700221, 50% NHS.
Data set [5] can be described thus: in vivo. The following applies: mouse, iv, 10 mg/kg; for half-life: T1/2. Set-up: species or system mice. Here is the method:
Compounds were tested in a pharmacokinetic (“PK”) study to determine the T1/2 of test compounds in mice. The PK study was performed at an approved contract research organization. Each test compound was dissolved in a vehicle to make a test antibiotic composition. The vehicle may be, for example, a water or a 5% solutol in saline solution Administration to each mouse is performed via intravenous (IV) cannulation of the tail vein. Blood is collected over K2-EDTA anticoagulant from the submandibular or sapheneous vein at predetermined time points. Following collection, the blood samples are stored at −70° C. until analysis by LC-MS and comparison to a standard calibration curve results in the T1/2 for each compound. The blood concentration of test compounds was measured at various times following 10 mg/kg (mouse) intravenous (IV) administration of each tested compound. […] The T1/2 for compound 17 was 34.2 hours, for compound 23 was 22.0 hours, and for compound 24 was 22.5 hours.

The subject of data set [6] is Escherichia coli ATCC-BAA-2340. The experiment in a line: MIC (50% NHS). It is filed as cell-based. The following applies: ATCCBAA2340; Escherichia coli ATCC-BAA-2340, 50% NHS.
Data set [7] has as its system Staphylococcus aureus ATCC-29213. Put plainly: MIC (50% NHS). The class given is cell-based. The following applies: ATCC29213; Staphylococcus aureus ATCC-29213, 50% NHS.
Data set [8] is described as follows: Microsomal stability assay, human CLint. The class given is in vitro ADME. Set-up: unit not given here. The following applies: human liver microsomes, 1 μM, 0.5 mg/ml microsomal protein. Here is the method: The activity profiles of compounds 17, 23, and 24 were assessed by various in vitro measurements. The minimum inhibitory concentration (MIC), MIC in the presence of normal human serum (NHS), microsome CLint, the % of free compounds following a plasma protein biding (PPB) assay, and the concentration of drug where the human-ether-à-go-go-related gene (hERG gene) channel block is halved (IC50(hERG)) were measured using standard in vitro protocols for compounds 17, 23, and 24. Unless otherwise indicated, measurements (e.g., microsomal clearance) were performed using a standard microsomal stability assay using LC/MS/MS techniques.
Test compounds were incubated at 37° C. with liver microsomes pooled from multiple donors at 1 μM in the presence of a NADPH regenerating system at 0.5 mg/ml microsomal protein. Positive of testosterone (a 3A4 substrate), propafenone (a 2D6 substrate), and diclofenac (a 2c9 substrate) were similarly incubated with microsomes in the presence of a NADPH regenerating system. Samples are removed at 0, 5, 10, 20, 30, and 60 minutes of incubation and immediately mixed with cold acetonitrile containing an internal standard (IS). Samples are then analyzed by LC/MS/MS to determine the disappearance of the test compound and are assessed based on the peak area ratios of analyte/IS (no standard curve).
In general terms: Liver microsomes are vesicles of endoplasmic reticulum, rich in cytochrome P450 enzymes.

For data set [9], the system named is Acinetobacter baumannii ATCC 17978. The experiment in a line: MIC (50% NHS). The class given is cell-based. The settings on record: ATCC17978; Acinetobacter baumannii ATCC 17978, 50% NHS.

≈ marks a conversion by molar mass, not a printed value.

The MIC is the lowest concentration that inhibits growth of the organism. One may read the clearance as the rate of elimination divided by the concentration. By half-life is commonly meant the time in which the quantity being followed falls by half. Take `CN1CC2CN(C(=O)Nc3cc(F)cc(F)c3)CC(C1)C2(O)c1ccc(-c2ccc(CN)cc2C#N)cc1` [Compound 23, (1R,5S,9r)-9-(4′-(aminomethyl)-2′-cyano-[1,1′-biphenyl]-4-yl)-N-(3,5-difluorophenyl)-9-hydroxy-7-methyl-3,7-diazabicyclo[3.3.1]nonane-3-carboxamide]: the minimal inhibitory concentration (MIC) in data set [1] was 8 µg/mL (≈ 15.5 µM); in [2], 0.13 µg/mL (≈ 0.251 µM); in data set [3] it was 2 µg/mL (≈ 3.86 µM); in data set [4], 1 µg/mL (≈ 1.93 µM); in [6], 0.25 µg/mL (≈ 0.483 µM); in data set [7], 0.13 µg/mL (≈ 0.251 µM). Besides, it took 64 µg/mL (≈ 124 µM) to inhibit growth in [9] (MIC). This molecule also had a clearance in data set [5] of 9.78 mL/min/kg. The half-life in data set [5] was 22 h. Further, the “human CLint” value in data set [8] stood at 93.

For `CN1CC2CN(C(=O)Nc3cc(F)cc(F)c3)CC(C1)C2(O)c1ccc(-c2ccc(CN)cc2C#N)cn1` [Compound 24, (1R,5S,9r)-9-(5-(4-(aminomethyl)-2-cyanophenyl)pyridin-2-yl)-N-(3,5-difluorophenyl)-9-hydroxy-7-methyl-3,7-diazabicyclo[3.3.1]nonane-3-carboxamide], the MIC was 16 µg/mL (≈ 30.9 µM) in data set [1]; 0.5 µg/mL (≈ 0.964 µM) in data set [2]; 4 µg/mL (≈ 7.71 µM) in data set [3]; 4 µg/mL (≈ 7.71 µM) in data set [4]; 0.25 µg/mL (≈ 0.482 µM) in data set [6]; 0.25 µg/mL (≈ 0.482 µM) in data set [7]. The same molecule returned an MIC in data set [9] of 64 µg/mL (≈ 123 µM). The molecule further returned a clearance in data set [5] of 13.9 mL/min/kg. In [5], the half-life was 22.5 h. For the same molecule, the “human CLint” value in [8] came to 144.

As for `CNCc1ccc(-c2ccc(C3(O)C4CN(C)CC3CN(C(=O)Nc3cc(F)cc(F)c3)C4)nc2)c(C#N)c1` [Compound 17, (1R,5S,9r)-9-(5-(2-cyano-4-((methylamino)methyl)phenyl)pyridin-2-yl)-N-(3,5-difluorophenyl)-9-hydroxy-7-methyl-3,7-diazabicyclo[3.3.1]nonane-3-carboxamide], the MIC in data set [1] was 7.12 µg/mL (≈ 13.4 µM); in data set [2] it was 0.22 µg/mL (≈ 0.413 µM); in [3] it was 1.78 µg/mL (≈ 3.34 µM); in data set [4], 0.89 µg/mL (≈ 1.67 µM); in data set [6], 0.22 µg/mL (≈ 0.413 µM); in data set [7], not above 0.11 µg/mL. In addition, inhibition of growth in [9] (MIC) required 28.5 µg/mL (≈ 53.5 µM). Besides, the T1/2 in data set [5] worked out at 34.2 h. Also, in data set [5], the clearance was found to be 8.86 mL/min/kg. The molecule further showed a half-life in data set [5] of 34 h. The “human CLint” value in data set [8] stood at 138.

For the origin of these results see US10654852B2, “Antibiotics and methods of using same” (THE BROAD INSTITUTE, INC., priority 2016, dated 2020).
